This note sets out measurements from patent US4727082A, “Dihydropyridine compounds and pharmaceutical compositions containing them” (Yamanouchi Pharmaceutical Co., Ltd., priority 1984, dated 1988).

A short description of test [1]: Hemodynamic effects in anesthetized open-chest dogs. It is filed as in vivo, Mongrel dogs. Particulars: Canis lupus familiaris; for change in vivo at 1 mg/kg: 1.0 mg/kg iv; for change in vivo at 0.3 mg/kg: 0.3 mg/kg iv. The method, then: Mongrel dogs of either sex were anesthetized with pentobarbital sodium (30 mg/kg iv). The animals were artificially ventilated with room air. The chest was opened at the left 4th intercostal space. Mean arterial blood pressure (MBP), heart rate (HR), left ventricular pressure (LVP), max. dLVP/dt, mean pulmonary arterial blood pressure (MPAP), cardiac output (CO) and coronary blood flow (Cor. BF) were measured. The test compounds were injected into the femoral vein. Hemodynamic effects of these compounds were compared with that of well known Ca^2+ -antagonists. Table 1 (column 1) indicates the percent changes of MBP and Cor. BF from control values induced by intravenous injection of test compounds.

The next test relates to coronary artery. The test is described as follows: Coronary vasodilating effects, intracoronary injection in anesthetized dogs. Type of test: in vivo, Mongrel dogs. Particulars: for Duration of action of coronary vasodilating effect: intracoronary injection; for ED100 pap (dose for 100% increase of Cor. BF): intracoronary, maximum response to papaverine 300 μg ia = 100%. On the procedure:
Mongrel dogs of either sex were anesthetized and ventilated as previously described. A thoracotomy was performed at the 4th intercostal space. Following an intravenous injection of […] (1000 units/kg), blood from the distal end of the cannulated carotid artery was pumped into circumflex branch of the left coronary artery using a servocontrolled peristaltic pump which maintained a constant perfusion pressure of 120 mmHg by means of a pump controller. An electromagnetic flow probe was inserted in the circuit to record blood flow through the cannulated coronary artery. The test compounds were administered directly into the rubber tubing connected close to the coronary artery cannula. Coronary vasodilating potency of the test compounds was by calculating the dose required to produce 100% increase of Cor. BF (ED100 pap), when the maximum responses to papaverine at a dose of 300 μg ia was expressed at 100% response.

Test [2] addresses T1, Beta-adrenoceptor (Rattus norvegicus, UniProt P18090).
T1 construct: from tissue; host or cells: heart in situ of anesthetized male Wistar rats (in vivo, i.v. dosing)
The test can be described thus: Beta-adrenoceptor blocking effects: blockade of positive chronotropic response to isoproterenol. Type of test: in vivo, male Wistar rats. Particulars: read-out: Beta Blocking ED50. On the procedure:
(§1) The rats were pretreated with reserpine (8 mg/kg ip), 18 hr before experiments. […] The heart rate was measured with a cardiotachometer triggered by the QRS of the ECG (lead II) and recorded on a polygraph. After the control response to isoproterenol at a dose of 0.1 μg/kg iv was obtained, the test compound was injected iv in increasing doses at 20 min intervals.

The target of test [3] is T1, Beta-adrenoceptor. The test can be described thus: Intrinsic sympathomimetic activity (ISA), increase in heart rate. Particulars: increase in HR, reserpinized rats, iv. It is filed as in vivo, male Wistar rats. On the procedure:
as §1
In this series of experiments, intrinsic sympathomimetic activity (ISA) was also evaluated. The results are shown in Table 1 (column 4), wherein "-" represents that an increase in HR was scarcely observed, "+" represents an increase in HR of 10 to 19 beats/min, "++" represents an increase in HR of 20 to 29 beats/min, and "+++" represents an increase in HR of above 30 beats/min.

Where [4] appears, read: read-out: Cor. BF, percent change from control.
The mark [5] stands for this setting: read-out: MBP, percent change from control.
[6] abbreviates: 50% blockade of chronotropic response to isoproterenol 0.1 μg/kg iv, reserpinized, vagotomized rats, cumulative dose.

Where two headings read alike, the source gives them in different places.

T1 sequence (P18090 whole entry): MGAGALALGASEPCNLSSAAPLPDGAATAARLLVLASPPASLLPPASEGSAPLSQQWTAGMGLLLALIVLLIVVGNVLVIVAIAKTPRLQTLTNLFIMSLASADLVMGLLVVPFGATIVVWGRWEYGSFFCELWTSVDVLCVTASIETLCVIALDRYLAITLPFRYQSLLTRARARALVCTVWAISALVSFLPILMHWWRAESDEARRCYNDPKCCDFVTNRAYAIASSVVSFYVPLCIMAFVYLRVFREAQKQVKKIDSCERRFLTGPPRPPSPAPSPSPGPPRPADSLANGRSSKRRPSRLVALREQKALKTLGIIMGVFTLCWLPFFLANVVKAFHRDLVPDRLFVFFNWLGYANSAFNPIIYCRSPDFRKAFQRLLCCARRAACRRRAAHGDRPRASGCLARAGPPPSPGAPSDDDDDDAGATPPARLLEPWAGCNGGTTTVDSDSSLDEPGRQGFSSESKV

As to `COC(=O)C1=C(C)NC(C)=C(C(=O)OC)C1c1cc([N+](=O)[O-])ccc1OCCCCNC[C@H](O)COc1ccccc1` [Example 16, (S)-(-)-dimethyl 4-[2-[4-(2-hydroxy-3-phenoxypropylamino)butoxy]-5-nitrophenyl]-2,6-dimethyl-1,4-dihydropyridine-3,5-dicarboxylate], the change in vivo at 1 mg/kg in test [1] (setting [4]) came to 97%. Further, the change in vivo at 1 mg/kg in test [1] (setting [5]) was -31%. In the test on coronary artery, the “Duration of action of coronary vasodilating effect” value (“Duration” for short) is > 60 min and the “ED100 pap (dose for 100% increase of Cor. BF)” value stood at 162 μg ia. At Beta-adrenoceptor [2] (setting [6]), the ED50 is 0.39 mg/kg. The ISA result at Beta-adrenoceptor [3] is reported as “-”.
For `COC(=O)C1=C(C)NC(C)=C(C(=O)OC)C1c1cc([N+](=O)[O-])ccc1OCCCCNC[C@@H](O)COc1ccccc1` [Example 17, (R)-(+)-dimethyl 4-[2-[4-(2-hydroxy-3-phenoxypropylamino)butoxy]-5-nitrophenyl]-2,6-dimethyl-1,4-dihydropyridine-3,5-dicarboxylate], the change in vivo at 1 mg/kg in test [1] (setting [4]) is 94%; in test [1] (setting [5]) it was -35%. For the same compound, the “Duration” value with coronary artery is listed as > 60 min. For the same compound, the “ED100 pap (dose for 100% increase of Cor. BF)” value in the test with coronary artery turned out to be 158 μg ia. Moreover, the ED50 at Beta-adrenoceptor [2] (setting [6]) was determined as 3.53 mg/kg. In addition, the ISA entry on Beta-adrenoceptor [3] is “-”.
`CCOC(=O)C1=C(C)NC(C)=C(C(=O)OCC)C1c1cc([N+](=O)[O-])ccc1OCCCCNCC(O)COc1ccccc1` (stereo not drawn) [Example 18, diethyl 4-[2-[4-(2-hydroxy-3-phenoxypropylamino)butoxy]-5-nitrophenyl]-2,6-dimethyl-1,4-dihydropyridine-3,5-dicarboxylate]: the change in vivo at 0.3 mg/kg in test [1] (setting [4]) was found to be 20%. Further, the change in vivo at 0.3 mg/kg in test [1] (setting [5]) is -13%. In the test on coronary artery, the “Duration” value came to 60 min and the “ED100 pap (dose for 100% increase of Cor. BF)” value is on record as 285 μg ia. Besides, the ED50 on Beta-adrenoceptor [2] (setting [6]) stood at 3.11 mg/kg. Also, the ISA result on Beta-adrenoceptor [3] is on record as “-”.
As for `COC(=O)C1=C(C)NC(C)=C(C(=O)OC)C1c1cc(S(C)(=O)=O)ccc1OCCCCNCC(O)COc1ccccc1` (stereo not drawn) [Example 23, dimethyl 4-[2-[4-(2-hydroxy-3-phenoxypropylamino)butoxy]-5-methylsulfonylphenyl]-2,6-dimethyl-1,4-dihydropyridine-3,5-dicarboxylate], in test [1] (setting [4]), the change in vivo at 1 mg/kg was 64%. The change in vivo at 1 mg/kg in test [1] (setting [5]) is -32%. Besides, in the test on coronary artery, the “Duration” value is given as > 60 min and the “ED100 pap (dose for 100% increase of Cor. BF)” value turned out to be 780 μg ia. Moreover, on Beta-adrenoceptor [2] (setting [6]), the ED50 amounted to 0.03 mg/kg. The ISA entry at Beta-adrenoceptor [3] is reported as “-”.
For the compound `COC(=O)C1=C(C)NC(C)=C(C(=O)OC)C1c1cc(Cl)ccc1OCCCCNCC(O)COc1ccccc1` (stereo not drawn) [Example 24, dimethyl 4-[5-chloro-2-[4-(2-hydroxy-3-phenoxypropylamino)butoxy]phenyl]-2,6-dimethyl-1,4-dihydropyr idine-3,5-dicarboxylate], the change in vivo at 1 mg/kg in test [1] (setting [4]) came out at 62%. The change in vivo at 1 mg/kg in test [1] (setting [5]) was -33%. For the same compound, in the test on coronary artery, the “Duration” value is 60 min and the “ED100 pap (dose for 100% increase of Cor. BF)” value worked out at 245 μg ia. The ED50 at Beta-adrenoceptor [2] (setting [6]) is 1.5 mg/kg. For the same compound, the ISA result on Beta-adrenoceptor [3] is reported as “-”.
`COC(=O)C1=C(C)NC(C)=C(C(=O)OC)C1c1cc(OC)ccc1OCCCCNCC(O)COc1ccccc1` (stereo not drawn) [Example 26, dimethyl 4-[2-[4-(2-hydroxy-3-phenoxypropylamino)butoxy]-5-methoxyphenyl]-2,6-dimethyl-1,4-dihydropyridine-3,5-dicarboxylate]: in test [1] (setting [4]), the change in vivo at 1 mg/kg was found to be 43%. The change in vivo at 1 mg/kg in test [1] (setting [5]) is -38%. Besides, in the test with coronary artery, the “Duration” value worked out at 40 min and the “ED100 pap (dose for 100% increase of Cor. BF)” value is 600 μg ia. Also, the ED50 at Beta-adrenoceptor [2] (setting [6]) was determined as 0.53 mg/kg. Besides, the ISA result at Beta-adrenoceptor [3] was “-”.
As to `COC(=O)C1=C(C)NC(C)=C(C(=O)OC)C1c1cc(SC)ccc1OCCCCNCC(O)COc1ccccc1.Cl` (stereo not drawn) [Example 28, dimethyl 4-[2-[4-(2-hydroxy-3-phenoxypropylamino)butoxy]-5-methylthiophenyl]-2,6-dimethyl-1,4-dihydropyridine-3,5-dicarboxylate hydrochloride], in test [1] (setting [4]), the change in vivo at 1 mg/kg stood at 70%. Moreover, the change in vivo at 1 mg/kg in test [1] (setting [5]) was -28%. In addition, in the test with coronary artery, the “Duration” value was found to be 30 min and the “ED100 pap (dose for 100% increase of Cor. BF)” value came out at 555 μg ia. Further, the ED50 on Beta-adrenoceptor [2] (iv) is 0.27 mg/kg. The ISA entry at Beta-adrenoceptor [3] is “-”.
Turning to `COC(=O)C1=C(C)NC(C)=C(C(=O)OC)C1c1ccccc1OCCCCNCC(O)COc1ccccc1` (stereo not drawn) [Example 34, dimethyl 4-[o-[4-(2-hydroxy-3-phenoxypropylamino)butoxy]phenyl]-2,6-dimethyl-1,4-dihydropyridine-3,5-dicarboxylate], in test [1] (setting [4]), the change in vivo at 0.3 mg/kg worked out at 3%. For the same compound, in test [1] (setting [5]), the change in vivo at 0.3 mg/kg was -18%. Besides, in the test on coronary artery, the “Duration” value is > 60 min and the “ED100 pap (dose for 100% increase of Cor. BF)” value worked out at 175 μg ia. Moreover, the ED50 on Beta-adrenoceptor [2] (setting [6]) stood at 0.9 mg/kg. For the same compound, the ISA result at Beta-adrenoceptor [3] is reported as “-”.
Consider `COC(=O)C1=C(C)NC(C)=C(C(=O)OC)C1c1cc([N+](=O)[O-])ccc1OCCCCNCC(O)COc1ccc(NC(C)=O)cc1` (stereo not drawn) [Example 42, dimethyl 4-[2-[4-[3-(p-acetamidophenoxy)-2-hydroxypropylamino]butoxy]-5-nitrophenyl]-2,6-dimethyl-1,4-dihydropyridine-3,5-dicarboxylate], for which the change in vivo at 1 mg/kg in test [1] (setting [4]) was 8%; in test [1] (setting [5]), -13%. Also, the “Duration” value in the test with coronary artery is > 60 min. In addition, the “ED100 pap (dose for 100% increase of Cor. BF)” value with coronary artery was found to be 515 μg ia. Also, the median effective dose (ED50) at Beta-adrenoceptor [2] (setting [6]) was determined as 0.5 mg/kg. Further, on Beta-adrenoceptor [3], the ISA entry is “-”.

A word on the ED50: it is the dose that gives a 50% effect, or the effect in half of the subjects.
